According to patent US9776976B2, “Triazolone compounds and uses thereof” (Inception 2, Inc., priority 2013, dated 2017):
Where two headings read alike, the source gives them in different places.

Assays:
Assay type in all cases: cell-based
[1] = molecular target: T1, human PPAR γ (Homo sapiens, UniProt P37231); assay: Human PPARγ reporter assay (Indigo Biosciences kit)
T1 sequence (P37231 1-505): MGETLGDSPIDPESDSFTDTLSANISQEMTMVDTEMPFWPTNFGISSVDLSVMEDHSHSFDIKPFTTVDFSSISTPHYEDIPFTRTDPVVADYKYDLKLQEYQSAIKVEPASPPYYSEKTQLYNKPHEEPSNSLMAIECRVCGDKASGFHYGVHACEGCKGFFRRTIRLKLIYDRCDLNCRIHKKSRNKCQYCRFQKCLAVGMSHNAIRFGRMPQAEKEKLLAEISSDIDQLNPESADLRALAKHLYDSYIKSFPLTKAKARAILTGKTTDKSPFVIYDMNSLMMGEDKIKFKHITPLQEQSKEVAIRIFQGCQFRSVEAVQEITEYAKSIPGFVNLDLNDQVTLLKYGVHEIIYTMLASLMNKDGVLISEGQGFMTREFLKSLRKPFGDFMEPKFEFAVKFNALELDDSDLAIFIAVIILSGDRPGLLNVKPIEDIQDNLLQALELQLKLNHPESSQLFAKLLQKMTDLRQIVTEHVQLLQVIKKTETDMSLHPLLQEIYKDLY
Procedure: (§1) Target Selectivity Assays
(§2) To determine species selectivity, a Mouse PPARα Reporter Assay System was used (Indigo Biosciences, Cat. #M00111). Activity of test compounds to antagonize or agonize other isoforms of human PPAR, for example β/δ and γ, were assessed using the corresponding kits from Indigo Biosciences (Cat. #IB00121 and #IB00101, respectively). In addition to PPAR activity, compounds were also screened for activity against other nuclear hormone receptors including Estrogen Receptor β, Glucocorticoid Receptor and Thyroid Receptor β using commercially available kits (Indigo Biosciences, Cat. #IB00411, IB00201 and IB01101, respectively). Each assay system from Indigo Biosciences uses technology analogous to the human PPARα kit, with the variance being that the cells used for each assay were engineered to over-express the receptor of interest. In addition, the appropriate receptor agonist (included with each kit) was used at ˜EC80 for assays in which antagonist potency was being assessed.

[2] = molecular target: T2, Human PPARα (Homo sapiens, UniProt Q07869); assay: Human PPARα Reporter Assay (luciferase, Indigo Biosciences); conditions: antagonist mode, reporter cells, overnight incubation
T2 construct: host or cells: proprietary non-human mammalian cells
T2 sequence (Q07869 1-468): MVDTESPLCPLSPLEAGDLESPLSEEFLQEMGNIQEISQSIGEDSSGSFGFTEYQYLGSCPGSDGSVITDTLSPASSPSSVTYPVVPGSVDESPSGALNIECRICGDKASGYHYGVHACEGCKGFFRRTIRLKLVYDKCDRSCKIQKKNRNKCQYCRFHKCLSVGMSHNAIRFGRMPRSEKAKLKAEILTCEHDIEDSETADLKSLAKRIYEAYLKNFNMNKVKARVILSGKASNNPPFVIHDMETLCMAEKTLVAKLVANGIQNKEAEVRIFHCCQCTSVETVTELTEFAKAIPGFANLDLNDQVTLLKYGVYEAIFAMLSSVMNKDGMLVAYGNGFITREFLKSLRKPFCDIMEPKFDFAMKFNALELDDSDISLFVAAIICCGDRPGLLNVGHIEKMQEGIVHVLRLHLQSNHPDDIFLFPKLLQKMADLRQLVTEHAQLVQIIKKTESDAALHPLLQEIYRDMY
Procedure: Human PPARα Reporter Assay The screening of test compounds for agonist or antagonist activities against human PPARα receptors was performed using a commercial kit, Human PPARα Reporter Assay System (Indigo Biosciences, Cat. #IB00111). This nuclear receptor assay system utilizes proprietary non-human mammalian cells engineered to provide constitutive, high-level expression of Human PPARα. Because these cells incorporate a PPARα-responsive luciferase reporter gene, quantifying expressed luciferase activity provides a sensitive surrogate measure of PPARα activity in the treated cells. The primary application of this reporter assay system is in the screening of test samples to quantify any functional activity, either agonist or antagonist, that they may exert against human PPARα. […] Briefly, reporter cells are dispensed into wells of the assay plate and then immediately dosed with test compounds. Following an overnight incubation, the treatment media is discarded and Luciferase Detection Reagent (LDR) is added. The intensity of light emission from the ensuing luciferase reaction provides a sensitive measure that is directly proportional to the relative level of PPARα activation in the reporter cells.

[3] = molecular target: T3, human PPAR β/δ (Homo sapiens, UniProt Q03181); assay: Human PPAR β/δ reporter assay (luciferase, Indigo Biosciences kit); conditions: antagonist mode, agonist at ~EC80; read-out: PPARδ Luciferase IC50
T3 construct: host or cells: engineered reporter cells (analogous to the PPARα kit)
T3 sequence (Q03181 1-441): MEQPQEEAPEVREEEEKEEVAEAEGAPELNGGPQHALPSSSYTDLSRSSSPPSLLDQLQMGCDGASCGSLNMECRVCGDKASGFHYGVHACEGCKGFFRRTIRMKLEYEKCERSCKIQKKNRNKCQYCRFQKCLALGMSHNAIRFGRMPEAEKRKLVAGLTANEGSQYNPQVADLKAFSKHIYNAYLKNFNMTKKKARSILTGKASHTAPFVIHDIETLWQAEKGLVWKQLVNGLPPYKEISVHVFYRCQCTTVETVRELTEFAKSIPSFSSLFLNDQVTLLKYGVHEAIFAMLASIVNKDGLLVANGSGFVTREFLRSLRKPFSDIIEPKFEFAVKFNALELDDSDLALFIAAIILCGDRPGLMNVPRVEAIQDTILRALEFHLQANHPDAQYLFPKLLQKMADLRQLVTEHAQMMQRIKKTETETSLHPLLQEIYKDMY
Procedure: as §1, §2

[4] = antagonist mode, agonist at ~EC80, read-out: PPARγ

| IC50 [1, 4] [µM] | IC50 [2] [µM] | IC50 [3] [µM] | SMILES | IC50 [1] [µM] |
| --- | --- | --- | --- | --- |
| 50 | 0.113 | 0.474 | CCCn1c(CCCc2ccc(-c3ccc(OCC)c(CC(=O)O)c3)cc2)nn(-c2ccc(C(F)(F)F)cc2)c1=O [Example 3, 2-(4-ethoxy-4′-(3-(5-oxo-4-propyl-1-(4-(trifluoromethyl)phenyl)-4,5-dihydro-1H-1,2,4-triazol-3-yl)propyl)-[1,1′-biphenyl]-3-yl)acetic acid] | – |
| 40 | 0.109 | 0.125 | CCOc1ccc(-c2ccc(CCCc3nn(-c4ccc(C(F)(F)F)cc4)c(=O)n3C3CCC(C)CC3)cc2)cc1CC(=O)O (stereo not drawn) [Example 5] | – |
| 18.1 | 0.135 | 0.154 | CCOc1ccc(-c2ccc(CCCc3nn(-c4ccc(C(F)(F)F)cc4)c(=O)n3C3CCCC(C)C3)cc2)cc1CC(=O)O (stereo not drawn) [Example 6] | – |
| 19.4 | 0.324 | 0.22 | CCOc1ccc(-c2ccc(CCCc3nn(-c4ccc(C(F)(F)F)cc4)c(=O)n3C3CCCCC3C)cc2)cc1CC(=O)O (stereo not drawn) [Example 7] | – |
| 27.1 | 0.029 | 0.505 | CCOc1ccc(-c2ccc(CCCc3nn(-c4ccc(OC(F)(F)F)cc4)c(=O)n3C3CCCCC3)cc2)cc1CC(=O)O [Example 8, 2-(4′-(3-(4-cyclohexyl-5-oxo-1-(4-(trifluoromethoxy)phenyl)-4,5-dihydro-1H-1,2,4-triazol-3-yl)propyl)-4-ethoxy-[1,1% biphenyl]-3-yl)acetic acid] | – |
| 39.8 | 0.25 | 0.312 | CCOc1ccc(-c2ccc(CCCc3nn(-c4ccc(C(F)(F)F)cc4)c(=O)n3-c3ccccc3F)cc2C)cc1CC(=O)O [Example 9, 2-(4-ethoxy-4′-(3-(4-(2-fluorophenyl)-5-oxo-1-(4-(trifluoromethyl)phenyl)-4,5-dihydro-1H-1,2,4-triazol-3-yl)propyl)-2′-methyl-[1,1% biphenyl]-3-yl)acetic acid] | – |
| 28.1 | 0.192 | 0.198 | Cc1cc(CCCc2nn(-c3ccc(C(F)(F)F)cc3)c(=O)n2-c2ccccc2F)ccc1-c1ccc(C(F)(F)F)c(C(=O)O)c1 [Example 10, 4′-(3-(4-(2-fluorophenyl)-5-oxo-1-(4-(trifluoromethyl)phenyl)-4,5-dihydro-1H-1,2,4-triazol-3-yl)propyl)-2′-methyl-(4-trifluoromethyl)-[1,1′-biphenyl-]-3-carboxylic acid] | – |
| 24.8 | 0.042 | 0.124 | CCOc1ccc(-c2ccc(CCCc3nn(-c4ccc(C(F)(F)F)cc4)c(=O)n3-c3ccccc3F)cc2C)cc1C(=O)O [Example 11, 4-ethoxy-4′-(3-(4-(2-fluorophenyl)-5-oxo-1-(4-(trifluoromethyl)phenyl)-4,5-dihydro-1H-1,2,4-triazol-3-yl)propyl)-2′-methyl-[1,1% biphenyl-]-3-carboxylic acid] | – |
| > 100 | 0.182 | 1.16 | CCCn1c(CCCc2ccc(-c3cccc(NS(=O)(=O)c4ccccc4)n3)cc2)nn(-c2ccc(C(F)(F)F)cc2)c1=O [Example 13, N-(6-(4-(3-(5-oxo-4-propyl-1-(4-(trifluoromethyl)phenyl)-4,5-dihydro-1H-1,2,4-triazol-3-yl)propyl)phenyl)pyridin-2-yl)benzenesulfonamide] | – |
| 53.1 | 0.108 | 0.697 | COc1ccc(-c2ccc(CCCc3nn(-c4ccc(C(F)(F)F)cc4)c(=O)n3C3CC3)cc2)cc1CC(=O)O [Example 14, 2-(4′-(3-(4-cyclopropyl-5-oxo-1-(4-(trifluoromethyl)phenyl)-4,5-dihydro-1H-1,2,4-triazol-3-yl)propyl)-4-methoxy-[1,1′-biphenyl]-3-yl)acetic acid] | – |
| > 100 | 38.8 | 8.36 | COc1ccc(-c2ccc(CCCc3nn(-c4ccc(C(F)(F)F)cc4)c(=O)n3Cc3ccccc3F)cc2)cc1CC(=O)O [Example 15, 2-(4′-(3-(4-(2-fluorobenzyl)-5-oxo-1-(4-(trifluoromethyl)phenyl)-4,5-dihydro-1H-1,2,4-triazol-3-yl)propyl)-4-methoxy-[1,1′-biphenyl]-3-yl)acetic acid] | – |
| 30.7 | 0.043 | 0.485 | CCCOc1ccc(-c2ccc(CCCc3nn(-c4ccc(C(F)(F)F)cc4)c(=O)n3C3CC3)cc2)cc1CC(=O)O [Example 17, 2-(4′-(3-(4-cyclopropyl-5-oxo-1-(4-(trifluoromethyl)phenyl)-4,5-dihydro-1H-1,2,4-triazol-3-yl)propyl)-4-propoxy-[1,1′-biphenyl-]-3-yl)acetic acid] | – |
| 22.3 | 0.031 | 0.032 | CCOc1ccc(-c2ccc(CCCc3nn(-c4ccc(C(F)(F)F)cc4)c(=O)n3-c3ccccc3Cl)cc2)cc1CC(=O)O [Example 19] | – |
| 32.9 | 0.15 | 0.363 | CCOc1ccc(-c2ccc(CCCc3nn(-c4ccc(C(F)(F)F)cc4)c(=O)n3CC(C)C)cc2)cc1CC(=O)O [Example 20] | – |
| 55.2 | 0.03 | 0.067 | CCOc1ccc(-c2ccc(CCCc3nn(-c4ccc(C(F)(F)F)cc4)c(=O)n3-c3cccc(F)c3)cc2)cc1CC(=O)O [Example 21] | – |
| 44.5 | 0.088 | 0.061 | CCOc1ccc(-c2ccc(CCCc3nn(-c4ccc(C(F)(F)F)cc4)c(=O)n3-c3cc(F)ccc3F)cc2)cc1CC(=O)O [Example 22] | – |
| – | – | – | CCOc1ccc(-c2ccc(CCCc3nn(-c4ccc(C(F)(F)F)cc4)c(=O)n3-c3ccccc3OC)cc2)cc1CC(=O)O [Example 26] | 14.9 |
| 63.2 | – | – | CCOc1ccc(-c2ccc(CCCc3nn(-c4ccc(C(F)(F)F)cc4)c(=O)n3-c3ccccc3F)cc2)cc1C(=O)O [Example 32, 4-ethoxy-4′-(3-(4-(2-fluorophenyl)-5-oxo-1-(4-(trifluoromethyl)phenyl)-4,5-dihydro-1H-1,2,4-triazol-3-yl)propyl)-[1,1′-biphenyl]-3-carboxylic acid] | – |
| 79 | – | – | CCOc1ccc(-c2ccc(CCCc3nn(-c4ccccc4F)c(=O)n3-c3ccc(C(F)(F)F)cc3)cc2)cc1CC(=O)O [Example 36, 2-(4-ethoxy-4′-(3-(1-(2-fluorophenyl)-5-oxo-4-(4-(trifluoromethyl)phenyl)-4,5-dihydro-1H-1,2,4-triazol-3-yl)propyl)-[1,1′-biphenyl]-3-yl)acetic acid] | – |
